Assay results reported in patent publication US5856439A, “Farnesyl transferase inhibitors, preparation thereof, and pharmaceutical compositions containing same” (Rhone-Poulenc Rorer S.A., priority 1995, dated 1999).

Molecular target: T1, human farnesyl transferase purified from THP1 cell cultures (Homo sapiens, UniProt P49354+P49356)
T1 construct: human farnesyl transferase purified from THP1 cell cultures; endogenous in cells; host or cells: THP1 cell cultures (enzyme purified from them)
Assay: Farnesyl transferase inhibition: [3H]farnesyl transfer from [3H]FPP to p21 H-ras
Format: biochemical
Conditions: 20 minutes at 37° C., 9 concentrations, each test repeated 3 times, read-out: Inhibitory activity IC50
Description: Farnesyl transferase activity is determined by the quantity of [^3 H]farnesyl transferred from [^3 H]farnesyl pyrophosphate [[^3 H]FPP) to the p21 H-ras protein. The standard reaction mixture is composed, for a final volume of 60 μl, of 50 mM Tris-HCl, 5 mM MgCl2, 5 mM dithiotreitol, 0.2% octyl β-D-glucopyranoside, 200 picomol p21 H-ras, 4.5 picomol [^3 H]FPP (activity 61000 dpm/picomol).
Reaction is initiated by adding approximately 5 ng of human farnesyl transferase purified from THP1 cell cultures. After incubation for 20 minutes at 37° C. in a microtitration plate containing 96 1-cm^3 wells per plate (Titer Plate®, Beckman), the reaction is stopped by adding 0.4 cm^3 of 0.1% SDS in methanol at 0° C. The mixture is then treated with 0.4 cm^3 of 30% trichloroacetic acid® (TCA) in methanol. The plates are left in ice for 1 hour. […] The membranes are dried in a microwave oven, then impregnated with scintillation medium by melting Meltilex® (Pharmacia) under hot air, and lastly counted in cpm in a β-Plate® counter (LKB). […]
The percentage inhibition values are obtained by comparison of the tests with and without inhibitor after deduction of blanks, the IC50 values being measured on the basis of the inhibitions obtained with 9 different concentrations using Enzfitter® or Grafit® software.

| IC50 [nM] | Substance |
| --- | --- |
| 15.5 | Cys-(N-Me)Val-[cis-3-phenyl-DL-prolyl]-Met |
| 920 | Cys-(N-Me)Val-[trans-3-phenyl-DL-prolyl]-Met |
